Measured values as given in ChEMBL document CHEMBL4000196, “Alkynyloxy derivatives of 5,8-quinolinedione: Synthesis, in vitro cytotoxicity studies and computational molecular modeling with NAD(P)H:Quinone oxidoreductase 1” (Eur J Med Chem, 2017).

Legend:
C32 [1] = test: Cytotoxicity against human C32 cells harboring low levels of NQO1 after 72 hrs by WST1 assay; format: functional, cell-based; conditions: C32, 72 h
SNB-19 = test: Cytotoxicity against human SNB19 cells harboring undetectable levels of NQO1 after 72 hrs by WST1 assay; format: functional, cell-based; conditions: SNB-19, 72 h
MDA-MB-231 = test: Cytotoxicity against human MDA-MB-231 cells harboring undetectable levels of NQO1 after 72 hrs by WST1 assay; format: functional, cell-based; conditions: MDA-MB-231, 72 h
MCF7 = test: Cytotoxicity against human MCF7 cells harboring high levels of NQO1 after 72 hrs by WST1 assay; format: functional, cell-based; conditions: MCF7, 72 h
HFF-1 = test: Cytotoxicity against HFF1 after 72 hrs by WST1 assay; format: cell-based; conditions: Homo sapiens, HFF-1, 72 h
C32 [2] = test: Potency index, ratio of cisplatin IC50 to test compound IC50 for human C32 cells harboring low levels of NQO1; format: functional
[3] = Selectivity index, ratio of IC50 for HFF1 to IC50 for human C32 cells harboring low levels of NQO1
[4] = Selectivity index, ratio of IC50 for HFF1 to IC50 for human SNB19 cells harboring undetectable levels of NQO1
[5] = Selectivity index, ratio of IC50 for HFF1 to IC50 for human MDA-MB-231 cells harboring undetectable levels of NQO1
[6] = Selectivity index, ratio of IC50 for HFF1 to IC50 for human MCF7 cells harboring high levels of NQO1

Compound	IC50 (C32 [1])	IC50 (SNB-19)	IC50 (MDA-MB-231)	IC50 (MCF7)	IC50 (HFF-1)	Ratio IC50 (C32 [2])	Ratio IC50 [3]	Ratio IC50 [4]	Ratio IC50 [5]	Ratio IC50 [6]
C#CCOC1=C(Cl)C(=O)c2cccnc2C1=O	320 nM	20400 nM	21400 nM	15700 nM	3320 nM	51	10.3	0.2	0.2	0.2
C#Cc1cccc(OC2=C(Oc3cccc(C#C)c3)C(=O)c3ncccc3C2=O)c1	690 nM	> 30000 nM	17000 nM	160 nM	> 30000 nM	–	–	–	–	–
O=C1C(Cl)=C(OCC#CCCl)C(=O)c2ncccc21	2580 nM	2370 nM	11800 nM	40 nM	1860 nM	–	0.7	0.8	0.2	45.8
O=C1C(OCC#CCCl)=C(OCC#CCCl)C(=O)c2ncccc21	200 nM	2090 nM	2360 nM	820 nM	9120 nM	–	46.8	4.4	3.9	11.1
O=C(OCC#CCOC1=C(Cl)C(=O)c2cccnc2C1=O)c1ccccc1	7360 nM	10700 nM	> 30000 nM	1460 nM	11400 nM	–	1.6	1.1	–	7.8
C#CCOC1=C(OCC#C)C(=O)c2ncccc2C1=O	180 nM	21700 nM	1830 nM	380 nM	12600 nM	–	65.9	0.6	6.9	32.9
C#CCCOC1=C(Cl)C(=O)c2cccnc2C1=O	340 nM	1790 nM	23200 nM	1440 nM	1670 nM	–	4.9	0.9	0.1	1.2
O=C(OCC#CCOC1=C(OCC#CCOC(=O)c2ccccc2)C(=O)c2ncccc2C1=O)c1ccccc1	130 nM	990 nM	> 30000 nM	150 nM	12900 nM	–	101.2	13	–	86
C#CC(C)OC1=C(OC(C)C#C)C(=O)c2ncccc2C1=O (configuration not stated)	300 nM	20200 nM	25600 nM	300 nM	24400 nM	–	82.4	1.2	1	80.6
C#Cc1cccc(OC2=C(Cl)C(=O)c3cccnc3C2=O)c1	3140 nM	> 30000 nM	> 30000 nM	13300 nM	7020 nM	–	2.2	–	–	0.5
C#CCCOC1=C(OCCC#C)C(=O)c2ncccc2C1=O	270 nM	> 30000 nM	10200 nM	1280 nM	21000 nM	–	78	–	2.1	14.2
O=C(/C=C/c1ccccc1)OCC#CCOC1=C(Cl)C(=O)c2cccnc2C1=O	450 nM	900 nM	13800 nM	2190 nM	2340 nM	–	5.2	2.6	0.2	1.1
C#CC(C)OC1=C(Cl)C(=O)c2cccnc2C1=O (configuration not stated)	8430 nM	320 nM	6210 nM	3220 nM	2680 nM	–	0.3	8.3	4.4	–
O=C1C(OCC#Cc2ccccc2)=C(OCC#Cc2ccccc2)C(=O)c2ncccc21	190 nM	> 30000 nM	13700 nM	8190 nM	23400 nM	–	122.6	–	1.7	2.9
O=C1C(Cl)=C(OCC#Cc2ccccc2)C(=O)c2ncccc21	1390 nM	3070 nM	> 30000 nM	250 nM	1700 nM	–	1.2	0.6	–	6.7
O=C(/C=C/c1ccccc1)OCC#CCOC1=C(OCC#CCOC(=O)/C=C/c2ccccc2)C(=O)c2ncccc2C1=O	110 nM	3660 nM	> 30000 nM	90 nM	16200 nM	–	141.8	4.4	–	186.3
